Results: patent US20070042937A1, “Inhibitors of 2-oxoglutarate dioxygenase as gamma globin inducers” (FibroGen, Inc., priority 2003, published 2007)
Read-outs that look alike come from different tables or passages of the source.

What was measured:
[1] = test system: CD34+ human bone marrow progenitor cells; details: for increase in HbF expression: CD34+ progenitor cell cultures, single assay, single cultures, FIG. 6; for increase in HbF synthesis compared to vehicle controls: added during EPO-dependent Phase II, FIG. 3A; for increase in HbF expression over untreated controls: added to both Phases I and II; for increase in HbF expression as assessed by MFI: compound alone, only during Phase II
γ-globin = γ-globin mRNA expression in K562 cells by quantitative PCR, normalized to 18S rRNA; format: cell-based, human; details: FIG. 1A
Description: For studies utilizing the human erythroleukemia K562 cell line (ATCC), cells were grown and cultured in complete medium (RPMI 1640, 10% fetal calf serum (FCS), 100 U/ml penicillin and 0.1 mg/ml streptomycin) in a humidified incubator at 37° C., 95% air, 5% CO2-HPIs were titrated into duplicate cultures at dosage levels spanning more than 100-fold differences in concentration, and incubated from 24 to 96 hours prior to harvesting and quantitation of F-cells and HbF levels by flow cytometry.
Each PCR run included a standard curve and water blank. In addition, a melt curve was run after completion of each PCR run to assess the specificity of the amplification. γ-globin gene expression was normalized relative to the expression level of 18S ribosomal RNA for each sample.

[2] = test system: CD34+ human bone marrow progenitor cells; details: FIG. 4B; for total hemoglobin in the cultures: compound alone
Description: Following phase I and II of the culture period, cells were harvested and approximately 1-2×10^5 cells were placed into round-bottom 96-well microtiter plates for each flow cytometry sample. The assay buffer for all washes and the diluent used for antibodies is PBS containing 0.1% BSA.
For HbF and Hb-specific immunolabeling, cells were pelleted by centrifugation at 1200 rpm for 2 minutes in a swinging bucket centrifuge (Beckman Coulter, Fullerton Calif.) with adaptors for microtiter plates, and the supernatant was aspirated. The cells were resuspended and lightly fixed in 100 ml of buffer containing 0.05% glutaraldehyde for 10 minutes, followed by addition of 100 ml of buffer and pelleting by centrifugation exactly as described above. The cells were washed two more times (for a total of 2.5 washes) before resuspension in buffer containing 1% Triton-X 100 for 5 min, to permeabilize the cells and enable penetration of antibodies. Following an additional 2.5 washes as described, cells were resuspended with 100 ml of buffer containing antibodies specific for HbF or the appropriate monoclonal isotype control (Caltag Laboratories, Burlingame Calif.), or total Hb and the matched polyclonal isotype control (BiosPacific, Emeryville Calif.).
The antibodies for HbF and isotype-matched control were directly conjugated to fluorochromes, so after antibody incubation the cells were washed as above before fixation in 1% formaldehyde, and stored at 4° C. in the dark until analysis. […] After an additional 2.5 washes, cells were fixed in 1% formaldehyde and stored at 4° C. in the dark until analysis.

[3] = test system: CD34+ human bone marrow progenitor cells; test: Percent HbF-positive cells (F-cells) in CD34+ bone marrow progenitor cell cultures by flow cytometry; details: for increase in F-cells over untreated cultures / increase in F-cells over untreated cultures, in combination with HU: CD34+ cells, only during Phase II, FIG. 3B; for increase in F-cells over untreated cultures, in combination with HU: in combination with 5 μM HU
K562 cells = details: 4 days, 20 μM, FIG. 2

SMILES: CC(C)Oc1ccc2nc(C(=O)NCC(=O)O)c(O)cc2c1 [HPI-5, [(3-Hydroxy-6-isopropoxy-quinoline-2-carbonyl)-amino]-acetic acid]
- increase in HbF expression [1]: 75%

SMILES: O=C(O)CNC(=O)c1ncc2cc(Sc3ccccc3)ccc2c1O [HPI-6, [(4-Hydroxy-7-phenylsulfanyl-isoquinoline-3-carbonyl)-amino}-acetic acid]
- expression of the gene encoding γ-globin (γ-globin; 3 days, 0, 3, 4.5, 10, 12.5 or 20 μM): increased in a dose-dependant manner
- γ-globin expression with further addition of hydroxyurea (γ-globin; 3 days, plus 100 μM HU, especially at lower concentrations): augmented

SMILES: NC(=O)NO [HU, hydroxyurea, reference compound]
- total hemoglobin in the cultures [2]: increases
- F-cells ([3]; CD34+ progenitor cells, compound alone, FIG. 4A): increases
- increase in HbF synthesis compared to vehicle controls ([1]; CD34+ cells): 50%

SMILES: O=C(O)CNC(=O)c1nc(Cl)c2ccccc2c1O [HPI-1, N-((1-chloro-4-hydroxy-isoquinoline-3-carbonyl)-amino)-acetic acid]
- increase in HbF synthesis compared to negative control cultures (K562 cells): 23-52%
- total hemoglobin, co-treatment with HU or butyrate ([2]; co-treatment with HPI-1 and HU or butyrate): no significant change
- total hemoglobin in the cultures [2]: did not cause a general increase
- HbF expression (percent F-cells) when used together with HU ([3]; 20 μM plus HU, FIG. 5A): additive
- HbF expression as measured by percent F-cells, compared to vehicle control (DMSO) ([3]; 20 μM, triplicate, FIG. 5A): increased
- increase in F-cells over untreated cultures ([3]; compound alone): 29%
- increase in F-cells over untreated cultures, in combination with HU [3]: 58%
- increase in F-cells ([3]; CD34+ progenitor cells, 20 μM, FIG. 4A): 50%
- F-cells, co-treatment with HU or butyrate ([3]; CD34+ progenitor cells, co-treatment with HPI-1 and HU or butyrate, FIG. 4A): additive increase
- HbF expression (MFI for HbF) when used together with HU ([1]; 20 μM plus HU, FIG. 5B): additive
- HbF expression as measured by MFI for HbF, compared to vehicle control (DMSO) ([1]; 20 μM, triplicate, FIG. 5B): increased
- increase in HbF expression over untreated controls ([1]; CD34+ cells, 10 μM): 12%
- increase in HbF expression over untreated controls ([1]; CD34+ cells, 20 μM): 47%
- increase in HbF expression as assessed by MFI ([1]; CD34+ cells): 36%

SMILES: CCCC(=O)O [butyrate, reference compound]
- increase in HbF synthesis compared to vehicle controls ([1]; CD34+ cells): 85%

SMILES: O=C(O)CNC(=O)c1nc2cc(Cl)ccc2cc1O [HPI-4, [(7-Chloro-3-hydroxy-quinoline-2-carbonyl)-amino]-acetic acid]
- increase in HbF expression [1]: 56%

SMILES: COc1ccc2c(O)c(C(=O)NCC(=O)O)nc(Cl)c2c1 [HPI-3, [(1-Chloro-4-hydroxy-7-methoxy-isoquinoline-3-carbonyl)-amino]-acetic acid]
- increase in HbF expression [1]: about 10%

SMILES: O=C(O)CNC(=O)c1ncc2cc(Br)ccc2c1O [HPI-2, [(7-Bromo-4-hydroxy-isoquinoline-3-carbonyl)-amino]-acetic acid]
- increase in HbF synthesis compared to negative control cultures (K562 cells): 77%
- increase in F-cells over untreated cultures ([3]; compound alone): 12%
- increase in F-cells over untreated cultures, in combination with HU [3]: 29%
- increase in HbF expression over controls ([1]; CD34+ cells, added during both phases, concentration not given): 40%
- increase in HbF expression as assessed by MFI ([1]; CD34+ cells): 5%
- increase in HbF expression [1]: about 10%
